One data set concerns HIV-1 strain 92-HT599. As to the kind of experiment: Anti HIV-1 p24 assay, strain 92-HT599 in MT2 cells. In kind it is cell-based. The following applies: Human immunodeficiency virus 1, MT2 cells, read-out: Percent inhibition. Here is the method: MT2 cells were infected with the HIV-1 strain 92-HT599 (10TCID50/30000 cells). The infected cells are plated at the concentration of 30000 cells per well in a 96 well assay micro plate. A test compound was added to the micro plate in a defined format with the final concentration of DMSO (vehicle) being not more than 1%. Incubation was carried out in a CO2 incubator for 96 hours for viral infection. At the end of incubation period an aliquot from each well was taken for p24 estimation. The quantitation of p24 is an index for antiviral activity of the compound. Percent inhibition was calculated with reference to control values (vehicle).
P24 estimation was carried out using an Advance Biosciences kit as per the procedure as detailed by supplier.
[…] was made by dissolving test compound in DMSO. Subsequent dilutions were made with DMSO to make necessary working stocks (100×).

The test system of data set [1] is HIV-1 strain IIIB. As to the kind of experiment: Anti-HIV-1 luciferase indicator assay in MT2 cells, IIIB. In kind it is cell-based. The following applies: viral strain II B; for pIC50: read-out: IC50. Here is the method:
(§1) Compound was dissolved in DMSO to make 30 mM stock. Then the 30 mM stock is further diluted to 4 mM using DMSO. The 4 mM stock was used as the top concentration to carry out an 11-point, 3-fold dilution scheme using DMSO in a 96-well plate to make the compound dose plate. Compounds in the dose plate were transferred to a new 96-well plate (working plate) containing PBS with 0.05% pluronic acid. From this working plate, the compound solution was transferred to the 384-well assay plates.
(§2) Control compounds used in compound control wells were prepared and added to assay plates individually.
(§3) MT2 cells were mixed with HIV-1 strain NL4-3 (or IIIB, or CNHN24) and the cell/virus mixture was added to the aforementioned antivirus assay plates. After incubation in a 37° C., 5% CO2 incubator, the supernatant from the assay plate was transferred to a new 384-well plate containing the indicator cells with a fire fly luciferase gene under HIV-1 LTR control. The expression level of luciferase was related to HIV-1 infectivity and was measured by Bright-Glo kit (Promega).
(§4) Therapeutic index (TI) was determined by taking ratio of CC50/IC50

Data set [2] is described as follows: in vitro. It is filed as cell-based. Conditions: human, CC50. The method, then:
as §1
(§5) For cytotoxicity assay the same amount of MT2 cells as in antivirus assay but without HIV-1 virus were added to the cytotoxicity plates. The cytotoxicity was measured by Cell Titer-Glo cell viability assay (Promega).

In data set [3] the test system is HIV-1 strain NL4-3. As to the kind of experiment: Anti-HIV-1 luciferase indicator assay in MT2 cells, NL4-3. It is filed as cell-based. Conditions: viral strain NL4-3. Here is the method: as §1, §2, §3, §4
For data set [4], the system named is HIV-1 strain CNHN24. As to the kind of experiment: Anti-HIV-1 luciferase indicator assay in MT2 cells, CNHN24. In kind it is cell-based. Conditions: viral strain CNHN24; for pIC50: read-out: IC50. The method, then: as §1, §2, §3, §4
Data set [5] is described as follows: in vitro. It is filed as cell-based. Conditions: human. Here is the method: (§6) Compound was dissolved in DMSO to make 30 mM stock. Then the 30 mM stock was further diluted to 4 mM using DMSO. The 4 mM stock was used as the top concentration to carry out an 11-point, 3-fold dilution scheme using DMSO in a 96-well plate to make the compound dose plate. Compounds in the dose plate were transferred to a new 96-well plate (working plate) containing PBS with 0.05% pluronic acid. From this working plate the compound solution was transferred to the 384-well assay plates.
For the cytotoxicity assay, the same amount of PBMC cells as in the antivirus assay but without the HIV-1 virus, was added to the cytotoxicity plates. The cytotoxicity was measured by a CellTiter-Glo cell viability assay (Promega).

The test system of data set [6] is HIV-1 strain CNHN24. Nature of the data set: Anti-HIV-1 luciferase indicator assay in PBMC cells, CNHN24. It is filed as cell-based. Conditions: Human immunodeficiency virus 1, viral strain CNHN24. Here is the method: as §6
(§7) Control compounds for cpd control wells were prepared and added to assay plates individually.
(§8) PBMC cells were isolated from human whole blood using Histopaque-1077 (Sigma, #10771) and frozen down and kept in liquid nitrogen tank. Two days before the assay PBMC was recovered and cultured in medium containing PHA-P (Sigma, #L1668). On the day of assay PBMC cells were pelleted down and resuspended in medium containing IL-2 (Sigma, #I7908), then the cells were mixed with HIV-1 strain NL4-3, MOI=0.01 (or IIIB, or CNHN24) and the cell/virus mixture was added to the aforementioned antivirus assay plates. […] The expression level of luciferase was related to HIV-1 infectivity and was measured by Bright-Glo kit (Promega).

Data set [7] deals with HIV-1 strain IIIB. As to the kind of experiment: Anti-HIV-1 luciferase indicator assay in PBMC cells, IIIB. In kind it is cell-based. The following applies: Human immunodeficiency virus 1, IIIB, viral strain II B. The method, then: as §6, §7, §8
The subject of data set [8] is HIV-1 strain NL4-3. As to the kind of experiment: Anti-HIV-1 luciferase indicator assay in PBMC cells, NL4-3. In kind it is cell-based. Conditions: Human immunodeficiency virus 1, NL43, viral strain NL4-3. The method, then:
as §6, §7, §8

A further data set has as its system MT2 cells. As to the kind of experiment: in vitro. It is filed as cell-based. The following applies: human. The method, then:
as §1, §5

[9] abbreviates: Human immunodeficiency virus 1, IIIB, MT2, MT2 cells.
The mark [10] stands for this setting: Human immunodeficiency virus 1, NL43, MT2, MT2 cells, read-out: IC50.
[11] abbreviates: Human immunodeficiency virus 1, MT2, MT2 cells.

By melting point is commonly meant the temperature, or range, at which the solid turns liquid. In general, inhibition refers to the relative decrease from the control value, in per cent. The pIC50 is the negative decadic logarithm of the IC50, by convention in mol/L. Usually CC50 stands for the concentration giving 50% cytotoxicity. Lower therefore signals harm at low concentration.

Structures are written as SMILES. pIC50: −log10 of the molar value. Several values for one entry are separate records, joined by “and”; a condition that tells them apart may be missing. Equal values may be shown once. Bounds are passed on as bounds.

On to `C=C(C)[C@@H]1CC[C@]2(C(=O)N[C@H]3C[C@@H](C(=O)N4CCCCC4)C3(C)C)CC[C@]3(C)[C@H](CC[C@@H]4[C@@]5(C)CC[C@H](OC(=O)[C@@H]6C[C@H](C(=O)O)C6(C)C)C(C)(C)[C@@H]5CC[C@]43C)[C@@H]12`, for which the melting point was 257.7 to 269 °C.

`C=C(C)[C@@H]1CC[C@]2(C(=O)N[C@H]3C[C@@H](C(=O)N4CCCC4)C3(C)C)CC[C@]3(C)[C@H](CC[C@@H]4[C@@]5(C)CC[C@H](OC(=O)CC(C)(C)C(=O)O)C(C)(C)[C@@H]5CC[C@]43C)[C@@H]12` [Example 15, 4-((1R,3aS,5aR,5bR,7aR,9S,11aR,11bR,13aR,13bR)-3a-((1S,3R)-2,2-dimethyl-3-(pyrrolidine-1-carbonyl)cyclobutylcarbamoyl)-5a,5b,8,8,11a-pentamethyl-1-(prop-1-en-2-yl)icosahydro-1H-cyclopenta[a]chrysen-9-yloxy)-2,2-dimethyl-4-oxobutanoic acid] came in with a melting point of 110 to 114 °C. Besides, the inhibition at 0.1 µM with HIV-1 strain 92-HT599 (HIV-1 92-HT599, p24, concentration 0.1 μM) was determined as 86%. Moreover, the inhibition at 1 µM with HIV-1 strain 92-HT599 (HIV-1 92-HT599, p24, concentration 1 μM) turned out to be 98%.

`C=C(C)[C@@H]1CC[C@]2(C(=O)O)CC[C@]3(C)[C@H](CC[C@@H]4[C@@]5(C)CC[C@H](OC(=O)[C@H]6C[C@@H](C(=O)O)C6(C)C)C(C)(C)[C@@H]5CC[C@]43C)[C@@H]12` [Example 19, (1R,3aS,5aR,5bR,7aR,9S,11aR,11bR,13aR,13bR)-9-((1S,3R)-3-carboxy-2,2-dimethylcyclobutanecarbonyloxy)-5a,5b,8,8,11a-pentamethyl-1-(prop-1-en-2-yl)icosahydro-1H-cyclopenta[a]chrysene-3a-carboxylic acid] gave a melting point of 308 to 310 °C. In the data set with HIV-1 strain IIIB [1] (setting [9]), the negative logarithm of the IC50 (pIC50) is 7.68. In the data set with HIV-1 strain IIIB [1] (MT2 cells), the “TI / Safety Index (CC50/IC50)” value turned out to be 952. Besides, the midpoint of cytotoxicity in “in vitro [2]”, the CC50, lay at 20000 nM. In the data set with HIV-1 strain NL4-3 [3] (setting [10]), the pIC50 is 7.14. Further, the “TI / Safety Index (CC50/IC50)” value in the data set on HIV-1 strain NL4-3 [3] (MT2 cells) was determined as 277. In the data set on HIV-1 strain CNHN24 [4] (setting [11]), the negative logarithm of the IC50 (pIC50) is 7.59. Moreover, the “TI / Safety Index (CC50/IC50)” value in the data set with HIV-1 strain CNHN24 [4] (MT2 cells) is on record as 769.

For the compound `C=C(C)[C@@H]1CC[C@]2(C(=O)N[C@@H]3C[C@H](C(=O)N4CCCC4)C3(C)C)CC[C@]3(C)[C@H](CC[C@@H]4[C@@]5(C)CC[C@H](OC(=O)CC(C)(C)C(=O)O)C(C)(C)[C@@H]5CC[C@]43C)[C@@H]12` [Example 45], the half-maximal cytotoxic concentration (CC50) in “in vitro [5]” was > 20000 nM; in the data set “in vitro [2]” it was 20000 nM. Also, the negative logarithm of the IC50 (pIC50) with HIV-1 strain IIIB [1] (setting [9]) is 7.60; in the data set on HIV-1 strain NL4-3 [3] (setting [10]) it was 7.77; in the data set on HIV-1 strain CNHN24 [6], 7.66; with HIV-1 strain CNHN24 [4] (setting [11]), 7.66; in the data set with HIV-1 strain IIIB [7], 7.60; in the data set with HIV-1 strain NL4-3 [8], 7.77. Besides, the results for the “TI / Safety Index (CC50/IC50)” value in the data set on HIV-1 strain IIIB [1] (MT2 cells), with HIV-1 strain NL4-3 [3] (MT2 cells) and with HIV-1 strain CNHN24 [4] (MT2 cells) were 800, 1177 and 800, respectively.

Regarding `C=C(C)[C@@H]1CC[C@]2(C(=O)N[C@@H]3C[C@H](C(=O)N4CCCCC4)C3(C)C)CC[C@]3(C)[C@H](CC[C@@H]4[C@@]5(C)CC[C@H](OC(=O)CC(C)(C)C(=O)O)C(C)(C)[C@@H]5CC[C@]43C)[C@@H]12` [Example 48, 4-((1R,3aS,5aR,5bR,7aR,9S,11aR,11bR,13aR,13bR)-3a-((1R,3S)-2,2-dimethyl-3-(piperidine-1-carbonyl)cyclobutylcarbamoyl)-5a,5b,8,8,11a-pentamethyl-1-(prop-1-en-2-yl)icosahydro-1H-cyclopenta[a]chrysen-9-yloxy)-2,2-dimethyl-4-oxobutanoic acid], the pIC50 in the data set with HIV-1 strain IIIB [1] (setting [9]) is 7.74; in the data set with HIV-1 strain IIIB [1] (MT2 cells) it was 7.60; with HIV-1 strain NL4-3 [3] (Human immunodeficiency virus 1, NL43, MT2, MT2 cells), 8.05; in the data set with HIV-1 strain NL4-3 [3] (MT2 cells, read-out: IC50), 7.77; in the data set on HIV-1 strain CNHN24 [4] (setting [11]), 7.96; with HIV-1 strain CNHN24 [4] (MT2 cells) it was 7.68. Also, the “TI / Safety Index (CC50/IC50)” value in the data set with HIV-1 strain IIIB [1] (MT2 cells) is 1061 and 800; with HIV-1 strain NL4-3 [3] (MT2 cells), 2072 and 1176. Moreover, the CC50 with MT2 cells is 20000 nM; in “in vitro [2]” it was > 20000 nM.

The record behind these values is patent US9067966B2, “Lupeol-type triterpene derivatives as antivirals” (priority 2009, dated 2015).
